What was measured:
Type in all cases: in vivo
rat model of DKA [1] = experiment: Cardiovascular parameters (MAP, pulse pressure, heart rate) in diabetic ketoacidosis rats; details: result in words
Text: Rats were anaesthetized with urethane (1.5 g/kg ip.) and prepared for the determination of hemodynamic parameters (Gulati et al., 1997a; Gulati et al., 1997b). The anesthetized rats were shaved and immobilized to prepare for cannulation. A 2-3 centimeter (cm) incision was made above the femoral vein and artery and the vessels were dissected and cleaned. The left femoral vein was cannulated (PE-50 tubing, Clay Adams, Parsipanny, N.J.) and secured for drug administration. An ultra-miniature pressure transducer SPR-320 (2F Polyurethane), with a single pressure sensor side mounted at the tip (Millar Instruments, Houston, Tex.) was inserted in the left femoral artery to acquire the hemodynamic signals. Pressure transducer was connected to bridge amplifier (ML221 Bridge Amp; AD Instruments, Mountain View, Calif., USA) with Viking connector (AEC-10C) and the signals were continuously acquired at a sampling rate of 1000 S^−1 using Millar PowerLab 16/30 data acquisition system (AD Instruments, Mountain View, Calif., USA). Mean arterial pressure (MAP), heart rate (HR), and pulse pressure (PP) were determined and analyzed with LabChart-5.00 software program (Millar Instruments). After the experiment was completed, the animals were euthanized with a high dose of urethane (3 gm/kg).
(§1) Group 4: Diabetic saline/insulin treated (D-Saline+insulin treated): Rats were injected with streptozotocin in citrate buffer (150 mg/kg ip) to induce diabetes and ketoacidosis. On day three, rats were treated with 1.5 U/kg regular insulin (Humulin® R (Regular human insulin, rDNA origin). On day four, saline and insulin treatment was carried out. Rats were infused via cannulated femoral vein saline, 0.9% NaCl at 80 mL/kg/hr and 1.5 U/kg/hr regular insulin for one hour. During the next two through four hours, rats were infused with saline, 0.9% NaCl at 40 mL/kg/hr and 1.5 U/kg/hr regular insulin (Yuen et al., 2008).
(§2) Group 5: Diabetic BMS-182874/saline/insulin treated (D-BMS+Saline+insulin treated): Rats were injected with streptozotocin in citrate buffer (150 mg/kg ip) to induce diabetes and ketoacidosis. On day three, rats were treated with 1.5 U/kg regular insulin. On day four, rats were administered a bolus dose of selective ETA receptor antagonist, BMS-182874 (9 mg/kg), then saline and insulin treatment was carried out. Rats were infused via cannulated femoral vein saline, 0.9% NaCl at 80 mL/kg/hr and 1.5 U/kg/hr regular insulin for one hour. During the next two through four hours rats were infused with saline, 0.9% NaCl at 40 mL/kg/hr and 1.5 U/kg/hr regular insulin.
(§3) Group 6: Diabetic BQ123/saline/insulin treated (D-BQ+saline+insulin treated): Same as above for Group 5, except BQ123 (1 mg/kg body weight) is used as a substitute for BMS-182874 (9 mg/kg).
(§4) Data are presented as mean±SEM. The significance of differences was estimated by one-way analysis of variance (intra group comparison with respect to base line data) and two-way analysis of variance (inter group comparison with respect to corresponding time points from each groups) followed by application of the Dunnett's Multiple Comparisons and Bonferroni test respectively. A P value of less than 0.05 was considered to be significant. The statistical analysis was processed with GraphPad Prism software Version 5.00.

rat model of DKA [2] = experiment: Plasma ET-1 level (Enzyme Immunometric Assay) in diabetic ketoacidosis rats
Protocol: In order to analyze the change in plasma ET-1 level during the treatment, blood samples were withdrawn through right femoral artery of the rats before and at the end of experiment and were collected into chilled EDTA tubes (1 mg/mL blood) containing aprotinin (500 KIU/mL of blood). The blood samples were centrifuged at 1,600×g for 15 minutes at 0° C. and plasma separated was stored at −70° C. until analyzed. ET-1 level was estimated using Assay's Design's Endothelin-1 Enzyme Immunometric Assay Kit (Nowicki et al., 2005; Brondani et al., 2007). Briefly, plasma samples and standards were added to wells coated with a monoclonal antibody specific for ET-1. The plate then was washed after 24 hours of incubation, leaving only bound ET-1 on the plate. A solution of horseradish peroxidase (HRP) labeled monoclonal antibody to ET-1 then was added, which binds to the ET-1 captured on the plate. The plate was incubated for 30 min, then washed to remove excess HRP labeled antibody. A solution of 3,3′,5,5′-tetramethylbenzidine (TMB) substrate was added, which generates a blue color when catalyzed by the HRP. Hydrochloric acid (1N) was added to stop the substrate reaction, and the resulting yellow color was read at 450 nm using DTX 800 Multimode detector. The data was analyzed with Multimode Detection Software (Beckman Coulter, Inc., Fullerton, Calif.). The measured optical density is directly proportional to the concentration of ET-1 in either standards/plasma. Blood samples from all the groups were collected before the start and at end of the treatment.
as §1, §2, §3, §4

rat model of DKA [3] = experiment: Arterial blood gases, electrolytes, lactate and hematocrit in diabetic ketoacidosis rats
Text: Arterial blood pH, pO2, pCO2, Na^+, K^+, lactate, and hematocrit were monitored prior to, at one hour, and at the end of treatment. Blood samples were drawn from the arterial cannula using blood gas sampling syringes (Innovative Medical Technologies, Inc. Leawood, Kans.) and analyzed using a GEM Premier 3000 unit (Instrument Laboratory, Lexington, Mass.). Blood samples were withdrawn from the femoral artery for baseline reading prior to start of treatment, after the first hour of treatment, and then at the end of the treatment (fifth hour of experiment).
as §1, §2, §3, §4

rat model of DKA [4] = experiment: Brain blood perfusion (Laser Doppler Flowmetry) in diabetic ketoacidosis rats; details: day 4, FIG. 6, antagonist given with saline+insulin, result in words
Protocol: A burr hole was drilled into the rat skull approximately 2 millimeters (mm) to the left of midline, being careful not to disturb the brain tissue itself. Cerebrovascular perfusion was measured via a fiber optic probe (PF407) applied to the surface of the rat brain. The probe was connected to a Periflux PF2b 4000 Laser Doppler Flowmetry unit (Perimed, Stockholm, Sweden). The perfusion was determined by measuring the passage of red blood cells through the capillaries.
as §1, §2, §3, §4

[5] = day 4, compared to diabetic untreated rats, result in words
[6] = saline+insulin, alone or after bolus BMS-182874 9 mg/kg or BQ123 1 mg/kg
[7] = saline+insulin, alone or after bolus BMS-182874 9 mg/kg or BQ123 1 mg/kg, instrument floor 6.80

Substance: Insulin: Humulin® R (Regular human insulin, rDNA origin), infused with saline
- effect on mean arterial pressure (rat model of DKA [1]; day 4, FIG. 3, antagonist given with saline+insulin): produced much less fall in arterial pressure compared to untreated rats
- effect on pulse pressure (rat model of DKA [1]; day 4, FIG. 4, antagonist given with saline+insulin): produced much less fall in pulse pressure compared to untreated rats
- effect on heart rate (rat model of DKA [1]; day 4, FIG. 5, antagonist given with saline+insulin): did not produce any decrease in heart rate compared to baseline
- plasma ET-1, Day 4 (pre tx) (rat model of DKA [2]; baseline before treatment, mean±SEM): 11.76 ± 1.94 pg/mL
- effect of treatment on plasma ET-1 level (rat model of DKA [2]; day 4, result in words (Table 4, FIG. 9)): increased the plasma levels of ET-1
- plasma ET-1, Day 4 (end of tx) (rat model of DKA [2]; saline+insulin, alone or after bolus BMS-182874 9 mg/kg or BQ123 1 mg/kg, mean±SEM): 22.17 ± 2.67 pg/mL
- arterial blood pH, Day 4 (pre-tx) (rat model of DKA [3]; baseline, instrument could not record pH below 6.80, mean±SEM): 6.81 ± 0.01
- arterial blood pCO2, Day 4 (pre-tx) (rat model of DKA [3]; baseline, mean±SEM): 30.40 ± 2.46 mmHg
- arterial blood pO2, Day 4 (pre-tx) (rat model of DKA [3]; baseline, mean±SEM): 145.00 ± 10.84 mmHg
- blood K+ level, Day 4 (pre-tx) (rat model of DKA [3]; baseline, mean±SEM): 3.82 ± 0.29 mmol/L
- blood Na+ level, Day 4 (pre-tx) (rat model of DKA [3]; baseline, mean±SEM): 135.00 ± 2.17 mmol/L
- blood hematocrit (Hct), Day 4 (pre-tx) (rat model of DKA [3]; baseline, mean±SEM): 49.80 ± 2.27%
- effect of treatment on arterial blood pH (acidosis) (rat model of DKA [3]; day 4, antagonist given with saline+insulin, result in words): did not produce any significant improvement in acidosis
- effect of treatment on blood K+ levels (rat model of DKA [3]; [5]): significantly reduced the change in blood K^+ levels
- effect of treatment on blood lactate levels (rat model of DKA [3]; [5]): significantly reduced the change in blood lactate levels
- effect of treatment on hematocrit (rat model of DKA [3]; [5]): significantly reduced the hematocrit
- arterial blood pCO2, Day 4 (1 hour of tx) (rat model of DKA [3]; [6]): 29.00 ± 2.30 mmHg
- arterial blood pCO2, Day 4 (end of tx) (rat model of DKA [3]; [6]): 27.60 ± 2.21 mmHg
- arterial blood pO2, Day 4 (1 hour of tx) (rat model of DKA [3]; [6]): 160.20 ± 11.36 mmHg
- arterial blood pO2, Day 4 (end of tx) (rat model of DKA [3]; [6]): 155.60 ± 11.43 mmHg
- blood K+ level, Day 4 (1 hour tx) (rat model of DKA [3]; [6]): 2.92 ± 0.16 mmol/L
- blood K+ level, Day 4 (end of tx) (rat model of DKA [3]; [6]): 2.48 ± 0.24 mmol/L
- blood Na+ level, Day 4 (1 hour of tx) (rat model of DKA [3]; [6]): 141.60 ± 1.21 mmol/L
- blood Na+ level, Day 4 (end of tx) (rat model of DKA [3]; [6]): 148.60 ± 0.51 mmol/L
- blood hematocrit (Hct), Day 4 (1 hour of tx) (rat model of DKA [3]; [6]): 38.80 ± 1.80%
- blood hematocrit (Hct), Day 4 (end of tx) (rat model of DKA [3]; [6]): 30.20 ± 3.12 %
- arterial blood pH, Day 4 (1 hour of tx) (rat model of DKA [3]; [7]): 6.80 ± 0.01
- arterial blood pH, Day 4 (end of tx) (rat model of DKA [3]; [7]): 6.81 ± 0.04
- effect on cerebral blood perfusion (rat model of DKA [4]): produced a marked (#P<0.05) increase in cerebral blood perfusion
